Results as given in ChEMBL document CHEMBL4400520, “Benzofuran-isatin-imine hybrids tethered via different length alkyl linkers: Design, synthesis and in vitro evaluation of anti-tubercular and anti-bacterial activities as well as cytotoxicity” (Eur J Med Chem, 2019).
Values after ≈ are worked out from the molar mass of the structure shown.

Assays:
[1] = system: Acinetobacter calcoaceticus; experiment: Antibacterial activity against Acinetobacter calcoaceticus; format: functional
[2] = system: Pseudomonas aeruginosa; experiment: Antibacterial activity against Pseudomonas aeruginosa ATCC 27853; format: functional
[3] = Cytotoxicity against African green monkey Vero cells assessed as reduction in cell viability after 72 hrs by MTT assay; format: cell-based; settings: chlorocebus sabaeus, Vero cells
[4] = system: Enterococcus faecium; experiment: Antibacterial activity against Enterococcus faecium; format: functional
[5] = system: Staphylococcus epidermidis; experiment: Antibacterial activity against methicillin-sensitive Staphylococcus epidermidis; format: functional
[6] = system: Citrobacter freundii; experiment: Antibacterial activity against Citrobacter freundii; format: functional
[7] = system: Escherichia coli; experiment: Antibacterial activity against Escherichia coli; format: functional
[8] = system: Enterococcus faecalis; experiment: Antibacterial activity against Enterococcus faecalis; format: functional
[9] = system: Staphylococcus epidermidis; experiment: Antibacterial activity against methicillin-resistant Staphylococcus epidermidis; format: functional
[10] = system: Klebsiella aerogenes; experiment: Antibacterial activity against Enterobacter aerogenes; format: functional
[11] = system: Staphylococcus aureus; experiment: Antibacterial activity against methicillin-resistant Staphylococcus aureus; format: functional
[12] = system: Enterobacter cloacae; experiment: Antibacterial activity against Enterobacter cloacae; format: functional
[13] = system: Mycobacterium tuberculosis; experiment: Antitubercular activity against Mycobacterium tuberculosis H37Rv; format: functional
[14] = system: Klebsiella pneumoniae; experiment: Antibacterial activity against Klebsiella pneumoniae; format: functional
[15] = system: Proteus mirabilis; experiment: Antibacterial activity against Proteus mirabilis; format: functional
[16] = system: Staphylococcus aureus; experiment: Antibacterial activity against methicillin-sensitive Staphylococcus aureus; format: functional
[17] = Selectivity index, ratio of CC50 for African green monkey Vero cells to MIC for Mycobacterium tuberculosis H37Rv; format: toxicity; settings: read-out: Selectivity Index

| Structure (SMILES) | MIC90 [1] | MIC90 [2] | CC50 at 72 h [3] | MIC90 [4] | MIC90 [5] | MIC90 [6] | MIC90 [7] | MIC90 [8] | MIC90 [9] | MIC90 [10] | MIC90 [11] | MIC90 [12] | MIC [13] | MIC90 [14] | MIC90 [15] | MIC90 [16] | selectivity ratio [17] |
| --- | --- | --- | --- | --- | --- | --- | --- | --- | --- | --- | --- | --- | --- | --- | --- | --- | --- |
| CCOC(=O)c1c(-c2ccc(OC)cc2)oc2ccc(OCCCCCN3C(=O)/C(=N\OC)c4cc(F)ccc43)cc12 | 1 mg/L (≈ 1.74 µM) | 1 mg/L (≈ 1.74 µM) | 32 mg/L (≈ 55.7 µM) | 16 mg/L (≈ 27.8 µM) | 0.5 mg/L (≈ 0.87 µM) | 0.125 mg/L (≈ 0.218 µM) | 0.125 mg/L (≈ 0.218 µM) | 1 mg/L (≈ 1.74 µM) | 4 mg/L (≈ 6.96 µM) | 0.125 mg/L (≈ 0.218 µM) | 2 mg/L (≈ 3.48 µM) | 2 mg/L (≈ 3.48 µM) | < 0.016 mg/L | 0.5 mg/L (≈ 0.87 µM) | 0.06 mg/L (≈ 0.104 µM) | 4 mg/L (≈ 6.96 µM) | > 2000 |
| CCO/N=C1\C(=O)N(CCCOc2ccc3oc(-c4ccc(OC)cc4)c(C(=O)OCC)c3c2)c2ccc(OC)cc21 | 4 mg/L (≈ 6.99 µM) | 4 mg/L (≈ 6.99 µM) | 32 mg/L (≈ 55.9 µM) | 64 mg/L (≈ 112 µM) | 1 mg/L (≈ 1.75 µM) | 2 mg/L (≈ 3.49 µM) | 0.5 mg/L (≈ 0.873 µM) | 8 mg/L (≈ 14 µM) | 8 mg/L (≈ 14 µM) | 2 mg/L (≈ 3.49 µM) | 8 mg/L (≈ 14 µM) | 1 mg/L (≈ 1.75 µM) | < 0.016 mg/L | 2 mg/L (≈ 3.49 µM) | 4 mg/L (≈ 6.99 µM) | 4 mg/L (≈ 6.99 µM) | > 4000 |
| CCOC(=O)c1c(-c2ccc(OC)cc2)oc2ccc(OCCCCCCN3C(=O)/C(=N\NC(N)=S)c4ccccc43)cc12 | 4 mg/L (≈ 6.51 µM) | 4 mg/L (≈ 6.51 µM) | 8 mg/L (≈ 13 µM) | 64 mg/L (≈ 104 µM) | 1 mg/L (≈ 1.63 µM) | 2 mg/L (≈ 3.25 µM) | 1 mg/L (≈ 1.63 µM) | 1 mg/L (≈ 1.63 µM) | 4 mg/L (≈ 6.51 µM) | 2 mg/L (≈ 3.25 µM) | 0.5 mg/L (≈ 0.813 µM) | 1 mg/L (≈ 1.63 µM) | < 0.016 mg/L | 8 mg/L (≈ 13 µM) | 1 mg/L (≈ 1.63 µM) | 1 mg/L (≈ 1.63 µM) | > 500 |
| CCOC(=O)c1c(-c2ccc(OC)cc2)oc2ccc(OCCCCCN3C(=O)/C(=N\OC)c4ccccc43)cc12 | 1 mg/L (≈ 1.8 µM) | 1 mg/L (≈ 1.8 µM) | 32 mg/L (≈ 57.5 µM) | 32 mg/L (≈ 57.5 µM) | 0.5 mg/L (≈ 0.898 µM) | 1 mg/L (≈ 1.8 µM) | 0.25 mg/L (≈ 0.449 µM) | 4 mg/L (≈ 7.19 µM) | 4 mg/L (≈ 7.19 µM) | 1 mg/L (≈ 1.8 µM) | 4 mg/L (≈ 7.19 µM) | 0.25 mg/L (≈ 0.449 µM) | 0.049 mg/L (≈ 0.088 µM) | 2 mg/L (≈ 3.59 µM) | 0.5 mg/L (≈ 0.898 µM) | 2 mg/L (≈ 3.59 µM) | 1030 |
| CCO/N=C1\C(=O)N(CCCCCOc2ccc3oc(-c4ccc(OC)cc4)c(C(=O)OCC)c3c2)c2ccc(OC)cc21 | 2 mg/L (≈ 3.33 µM) | 2 mg/L (≈ 3.33 µM) | 16 mg/L (≈ 26.6 µM) | 16 mg/L (≈ 26.6 µM) | 1 mg/L (≈ 1.66 µM) | 0.125 mg/L (≈ 0.208 µM) | 0.125 mg/L (≈ 0.208 µM) | 1 mg/L (≈ 1.66 µM) | 4 mg/L (≈ 6.66 µM) | 0.125 mg/L (≈ 0.208 µM) | 1 mg/L (≈ 1.66 µM) | 0.06 mg/L (≈ 0.0999 µM) | 0.156 mg/L (≈ 0.26 µM) | 2 mg/L (≈ 3.33 µM) | 0.06 mg/L (≈ 0.0999 µM) | 1 mg/L (≈ 1.66 µM) | 102 |
| CCO/N=C1\C(=O)N(CCCOc2ccc3oc(-c4ccc(OC)cc4)c(C(=O)OCC)c3c2)c2ccccc21 | 2 mg/L (≈ 3.69 µM) | 4 mg/L (≈ 7.37 µM) | 16 mg/L (≈ 29.5 µM) | 16 mg/L (≈ 29.5 µM) | 1 mg/L (≈ 1.84 µM) | 2 mg/L (≈ 3.69 µM) | 0.5 mg/L (≈ 0.922 µM) | 4 mg/L (≈ 7.37 µM) | 8 mg/L (≈ 14.7 µM) | 1 mg/L (≈ 1.84 µM) | 4 mg/L (≈ 7.37 µM) | 4 mg/L (≈ 7.37 µM) | < 0.016 mg/L | 1 mg/L (≈ 1.84 µM) | 2 mg/L (≈ 3.69 µM) | 8 mg/L (≈ 14.7 µM) | > 8000 |
| CCOC(=O)c1c(-c2ccc(OC)cc2)oc2ccc(OCCCN3C(=O)/C(=N\OC)c4ccccc43)cc12 | 1 mg/L (≈ 1.89 µM) | 2 mg/L (≈ 3.78 µM) | 128 mg/L (≈ 242 µM) | 32 mg/L (≈ 60.5 µM) | 0.5 mg/L (≈ 0.946 µM) | 1 mg/L (≈ 1.89 µM) | 0.25 mg/L (≈ 0.473 µM) | 4 mg/L (≈ 7.57 µM) | 1 mg/L (≈ 1.89 µM) | 1 mg/L (≈ 1.89 µM) | 4 mg/L (≈ 7.57 µM) | 0.5 mg/L (≈ 0.946 µM) | < 0.016 mg/L | 1 mg/L (≈ 1.89 µM) | 0.5 mg/L (≈ 0.946 µM) | 4 mg/L (≈ 7.57 µM) | > 1000 |
| CCOC(=O)c1c(-c2ccccc2)oc2ccc(OCCCN3C(=O)/C(=N\OC)c4ccccc43)cc12 | 1 mg/L (≈ 2.01 µM) | 1 mg/L (≈ 2.01 µM) | 64 mg/L (≈ 128 µM) | 8 mg/L (≈ 16 µM) | 0.125 mg/L (≈ 0.251 µM) | 0.5 mg/L (≈ 1 µM) | 0.25 mg/L (≈ 0.501 µM) | 1 mg/L (≈ 2.01 µM) | 0.5 mg/L (≈ 1 µM) | 0.25 mg/L (≈ 0.501 µM) | 2 mg/L (≈ 4.01 µM) | 2 mg/L (≈ 4.01 µM) | < 0.016 mg/L | 0.5 mg/L (≈ 1 µM) | 0.5 mg/L (≈ 1 µM) | 8 mg/L (≈ 16 µM) | > 2000 |
| CCO/N=C1\C(=O)N(CCCCCCOc2ccc3oc(-c4ccc(OC)cc4)c(C(=O)OCC)c3c2)c2ccccc21 | 2 mg/L (≈ 3.42 µM) | 1 mg/L (≈ 1.71 µM) | 16 mg/L (≈ 27.4 µM) | 32 mg/L (≈ 54.7 µM) | 1 mg/L (≈ 1.71 µM) | 1 mg/L (≈ 1.71 µM) | 0.5 mg/L (≈ 0.855 µM) | 2 mg/L (≈ 3.42 µM) | 8 mg/L (≈ 13.7 µM) | 0.25 mg/L (≈ 0.428 µM) | 1 mg/L (≈ 1.71 µM) | 0.5 mg/L (≈ 0.855 µM) | < 0.016 mg/L | 1 mg/L (≈ 1.71 µM) | 0.25 mg/L (≈ 0.428 µM) | 1 mg/L (≈ 1.71 µM) | > 1000 |
